This note sets out measurements from patent US20130171091A1, “Nanocell Drug Delivery System” (Massachusetts Institute of Technology, priority 2004, published 2013).

Common to all, as to assay type: cell-based
Assay [1] concerns B16/F10 melanoma cells and human umbilical vein endothelial cells. Briefly: Effect of VEGF and HGF on tumor angiogenesis in vitro, co-culture on matrigel. Conditions: growth factor added to co-culture on matrigel. The protocol:
Protocol: For setting up the system, human umbilical vein endothelial cells, pooled from three donors, were purchased from Cambrex, and used between passages 3-6. The cells were grown in endothelial basal medium supplemented with 20% fetal bovine serum (FBS) and bulletkit-2 (Sengupta et al. Cancer Res. 63 (23):8351-59, Dec. 1, 2003). For the tumor component, we used B16/F10 melanoma cells as the model cell line, which were stably transfected to express green fluorescent protein. Plasmid expressing enhanced green fluorescent protein (pEGFP-C2, Clontech) was linearized and lipofected (Lipofectamine 2000, Invitrogen) into B16-F10 cells. The stably integrated clones of B16-F10 cells were selected by 800 μg/ml G418. The green fluorescence of the G418 resistant clones was further confirmed by Flow Cytometry and epifluorescence microscopy. The GFP-B16/F10 cells were regularly cultured in DMEM supplemented with 5% FBS. […] The coverslips were mounted with antifade, and analysed with a LSM510 Zeiss confocal microscope. […] Quantification of the area covered by the endothelial cells or GFP-BL6/F10 cells was carried out using a planimetric point-count method using a 224-intersection point square reticulum. Data were expressed as the ratio of each component to the total area covered by cells. […]

For assay [2] the test system is unchanged. Briefly: VEGF-induced response in co-culture assay plated on collagen. From the text: (§1) Protocol: For setting up the system, human umbilical vein endothelial cells, pooled from three donors, were purchased from Cambrex, and used between passages 3-6. […] For the tumor component, we used B16/F10 melanoma cells as the model cell line, which were stably transfected to express green fluorescent protein. Plasmid expressing enhanced green fluorescent protein (pEGFP-C2, Clontech) was linearized and lipofected (Lipofectamine 2000, Invitrogen) into B16-F10 cells. […] The GFP-B16/F10 cells were regularly cultured in DMEM supplemented with 5% FBS. Sterile glass coverslips (Corning) were coated with matrigel (extracellular matrix extracted from murine Englebreth-Holms sarcoma, diluted 1:3 in phosphate buffer saline; Becton Dickinson) or collagen (type I from rat's tail, Becton Dickinson). Synchronized human umbilical vein endothelial cells were trypsinised and plated on the coverslips at a density of 2×10^4 cells per well. The cells were allowed to adhere for 24 hours in endothelial basal media supplemented with 20% fetal bovine serum. […] The coverslips were mounted with antifade, and analysed with a LSM510 Zeiss confocal microscope. […] Data were expressed as the ratio of each component to the total area covered by cells.

For assay [3] the test system is unchanged. Briefly: HGF/SF-induced response in co-culture assay on matrigel. From the text:
(§2) Protocol: For setting up the system, human umbilical vein endothelial cells, pooled from three donors, were purchased from Cambrex, and used between passages 3-6. […] For the tumor component, we used B16/F10 melanoma cells as the model cell line, which were stably transfected to express green fluorescent protein. Plasmid expressing enhanced green fluorescent protein (pEGFP-C2, Clontech) was linearized and lipofected (Lipofectamine 2000, Invitrogen) into B16-F10 cells. […] The GFP-B16/F10 cells were regularly cultured in DMEM supplemented with 5% FBS. Sterile glass coverslips (Corning) were coated with matrigel (extracellular matrix extracted from murine Englebreth-Holms sarcoma, diluted 1:3 in phosphate buffer saline; Becton Dickinson) or collagen (type I from rat's tail, Becton Dickinson). Synchronized human umbilical vein endothelial cells were trypsinised and plated on the coverslips at a density of 2×10^4 cells per well. The cells were allowed to adhere for 24 hours in endothelial basal media supplemented with 20% fetal bovine serum. At this time point, the media was replaced with EBM supplemented with 1% serum, and green fluorescent protein-expressing B16/F10 cells were added to the system at a density of 5×10^3 cells per well. The co-culture was allowed to incubate overnight, following which different treatments were added to the media. At 24 hours post-treatment, the cells were fixed in paraformaldehyde (4% on ice, for 20 min), and stained with propidium iodide. The coverslips were mounted with antifade, and analysed with a LSM510 Zeiss confocal microscope. […] Data were expressed as the ratio of each component to the total area covered by cells.

For assay [4] the test system is unchanged. The assay is described as follows: HGF-induced response in co-culture assay plated on collagen.
Source text: as §1

Assay [5] shares this test system. The assay is described as follows: VEGF-induced response in co-culture assay on matrigel. Further details: VEGF-induced endothelial network: dose or concentration left out as unconfirmed. Conditions: for effect on tumor cells: Doxorubicin 10-50 μM.
Source text: as §2

Consider “HGF/SF: growth factor added to the co-culture”, for which the vascular network result in assay [1] was “significant increase in the vascular network”.

Take `COc1cccc2c1C(=O)c1c(O)c3c(c(O)c1C2=O)C[C@@](O)(C(=O)CO)C[C@@H]3O[C@H]1C[C@H](N)[C@H](O)[C@H](C)O1` [Doxorubicin]: the tumor cell death result in assay [2] (VEGF-treated co-culture) is on record as “induced tumor cell death”; in assay [3] it was “selective induction of tumor cell death”; in assay [4] (HGF/SF-treated co-culture), “induced tumor cell death”. The “effect on tumor cells” value in assay [5] is on record as “selective ablation of the tumor cells in a concentration-dependent manner”. Besides, the VEGF-induced endothelial network result in assay [5] (highest concentration used) is listed as “no effect on the VEGF-induced endothelial network”.

Regarding VEGF, the vascular network entry in assay [1] is on record as “significant increase in the vascular network”.

For the molecule `O=C1CCC(N2C(=O)c3ccccc3C2=O)C(=O)N1` (centres unmarked) [thalidomide], the “angiogenic effects of VEGF” value in assay [2] is on record as “inhibited the angiogenic effects of VEGF”. Besides, the “HGF/SF-induced response (endothelial network)” value in assay [3] is listed as “failed to inhibit the HGF-induced effect”. For the same molecule, the endothelial cell loss result in assay [4] (HGF/SF) is recorded as “induced endothelial cell loss”. In addition, in assay [5], the “VEGF-induced angiogenesis / vascular network” value is reported as “collapse of the VEGF-induced vascular network” and the “effect on tumor cells” value is listed as “without affecting the tumor cells”.

With `Clc1ccc(Nc2nnc(Cc3ccncc3)c3ccccc23)cc1` [PTK787], the “HGF/SF-induced response (endothelial network)” value in assay [3] was “no effect on the HGF/SF-induced response”. Besides, in assay [5], the “VEGF-induced angiogenesis / vascular network” value is given as “blocked”.
